From paper PMC2893400 (Biomedical chromatography : BMC, 2010) come the findings set out here.

The structures appear in SMILES notation.

Data set [1] in a line: Stability of stock solutions in methanol at 4°C. Type of data set: physicochemical. To be noted: stock solution in methanol stored at 4°C, up to 7 days.
A short description of data set [2]: Stability post extraction, reconstituted in methanol at room temperature. Type of data set: physicochemical. To be noted: kept at room temperature.

Regarding `CC(C)C[C@H]1C(=O)N2CCC[C@H]2[C@]2(O)O[C@](NC(=O)[C@@H]3C=C4c5cccc6[nH]c(Br)c(c56)C[C@H]4N(C)C3)(C(C)C)C(=O)N12` [BCT, bromocriptine], the “Degradation of stock solution” value in data set [1] is listed as “began to degrade significantly after 3 days”.

With `O=C(CCCN1CCCN(c2ccc(Cl)cc2)CC1)c1ccc(F)cc1` [DAL, 4-[4-(4-Chlorophenyl)-1,4-diazepan-1-yl]-1-(4-fluorophenyl) butan-1-one], in data set [1], the “Degradation of stock solution” value is listed as “no degradation after 7 days”. Moreover, the “Degradation reconstituted in methanol after recovery” value in data set [2] is given as “no degradation”.

`O=C(CCCN1CC=C(n2c(=O)[nH]c3ccccc32)CC1)c1ccc(F)cc1` [DRO, droperidol]: in data set [1], the “Degradation of stock solution” value was “no degradation after 7 days”. Also, the “Degradation reconstituted in methanol after recovery” value in data set [2] is on record as “no degradation”.
